# Columns and labels:
# [1] = target: Kinesin-like protein KIF11 (Homo sapiens, UniProt P52732); experiment: Kinesin ATPase In Vitro Assay; details: pH 7; 23 °C
# Experimental: The kinesin motor domain is incubated with microtubules, 1 mM ATP (1: 1 MgCl2 : Na-ATP), and compound at 23°C in buffer. After reaction was terminated, free ph osphate from the ATP hydrolysis reaction is measured via a quinaldine red/ammoni um molybdate assay. The absorbance of the phospho-molybdate complex is […] Human poly-histidine tagged KSP motor domain was cloned, and protein was expressed in E. coli.
# [2] = target: Potassium voltage-gated channel subfamily H member 2 (Homo sapiens, UniProt Q12809); experiment: hERG Radioligand Competition Assay; details: pH 7.4; 22 °C
# Experimental: The hERG IC50 values were determined by radioligand competition experiments using membrane preparations from human embryonic kidney cells that stably express hERG.
# Chain of Kinesin-like protein KIF11 (P52732 whole entry, looked up, the tested form may be a part): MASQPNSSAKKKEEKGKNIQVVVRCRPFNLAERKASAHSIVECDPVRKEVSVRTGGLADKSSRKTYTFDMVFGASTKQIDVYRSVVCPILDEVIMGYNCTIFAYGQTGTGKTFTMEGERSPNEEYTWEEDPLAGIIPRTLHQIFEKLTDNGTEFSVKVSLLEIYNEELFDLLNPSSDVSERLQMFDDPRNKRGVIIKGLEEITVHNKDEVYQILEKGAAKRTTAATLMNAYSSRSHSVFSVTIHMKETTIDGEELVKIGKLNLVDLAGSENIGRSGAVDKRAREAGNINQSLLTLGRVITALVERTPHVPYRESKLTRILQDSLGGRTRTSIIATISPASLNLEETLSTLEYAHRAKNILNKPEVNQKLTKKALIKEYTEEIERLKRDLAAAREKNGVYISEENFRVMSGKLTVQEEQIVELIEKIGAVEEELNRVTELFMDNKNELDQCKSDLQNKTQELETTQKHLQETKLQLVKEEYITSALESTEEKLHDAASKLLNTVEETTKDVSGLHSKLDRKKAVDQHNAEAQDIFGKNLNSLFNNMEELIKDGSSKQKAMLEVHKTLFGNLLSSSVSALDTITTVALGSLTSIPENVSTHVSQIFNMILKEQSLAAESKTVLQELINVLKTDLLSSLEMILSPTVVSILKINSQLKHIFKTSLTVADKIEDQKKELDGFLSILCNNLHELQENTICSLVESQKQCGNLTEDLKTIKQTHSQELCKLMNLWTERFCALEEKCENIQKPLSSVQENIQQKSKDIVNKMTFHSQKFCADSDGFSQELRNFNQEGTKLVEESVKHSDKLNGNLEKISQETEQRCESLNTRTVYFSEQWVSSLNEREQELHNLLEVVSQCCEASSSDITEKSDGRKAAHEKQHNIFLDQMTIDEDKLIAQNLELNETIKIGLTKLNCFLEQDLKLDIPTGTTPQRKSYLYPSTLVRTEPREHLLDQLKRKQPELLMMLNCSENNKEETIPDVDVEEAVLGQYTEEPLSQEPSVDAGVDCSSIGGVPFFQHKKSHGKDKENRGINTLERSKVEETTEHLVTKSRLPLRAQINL
# Chain of Potassium voltage-gated channel subfamily H member 2 (Q12809 whole entry): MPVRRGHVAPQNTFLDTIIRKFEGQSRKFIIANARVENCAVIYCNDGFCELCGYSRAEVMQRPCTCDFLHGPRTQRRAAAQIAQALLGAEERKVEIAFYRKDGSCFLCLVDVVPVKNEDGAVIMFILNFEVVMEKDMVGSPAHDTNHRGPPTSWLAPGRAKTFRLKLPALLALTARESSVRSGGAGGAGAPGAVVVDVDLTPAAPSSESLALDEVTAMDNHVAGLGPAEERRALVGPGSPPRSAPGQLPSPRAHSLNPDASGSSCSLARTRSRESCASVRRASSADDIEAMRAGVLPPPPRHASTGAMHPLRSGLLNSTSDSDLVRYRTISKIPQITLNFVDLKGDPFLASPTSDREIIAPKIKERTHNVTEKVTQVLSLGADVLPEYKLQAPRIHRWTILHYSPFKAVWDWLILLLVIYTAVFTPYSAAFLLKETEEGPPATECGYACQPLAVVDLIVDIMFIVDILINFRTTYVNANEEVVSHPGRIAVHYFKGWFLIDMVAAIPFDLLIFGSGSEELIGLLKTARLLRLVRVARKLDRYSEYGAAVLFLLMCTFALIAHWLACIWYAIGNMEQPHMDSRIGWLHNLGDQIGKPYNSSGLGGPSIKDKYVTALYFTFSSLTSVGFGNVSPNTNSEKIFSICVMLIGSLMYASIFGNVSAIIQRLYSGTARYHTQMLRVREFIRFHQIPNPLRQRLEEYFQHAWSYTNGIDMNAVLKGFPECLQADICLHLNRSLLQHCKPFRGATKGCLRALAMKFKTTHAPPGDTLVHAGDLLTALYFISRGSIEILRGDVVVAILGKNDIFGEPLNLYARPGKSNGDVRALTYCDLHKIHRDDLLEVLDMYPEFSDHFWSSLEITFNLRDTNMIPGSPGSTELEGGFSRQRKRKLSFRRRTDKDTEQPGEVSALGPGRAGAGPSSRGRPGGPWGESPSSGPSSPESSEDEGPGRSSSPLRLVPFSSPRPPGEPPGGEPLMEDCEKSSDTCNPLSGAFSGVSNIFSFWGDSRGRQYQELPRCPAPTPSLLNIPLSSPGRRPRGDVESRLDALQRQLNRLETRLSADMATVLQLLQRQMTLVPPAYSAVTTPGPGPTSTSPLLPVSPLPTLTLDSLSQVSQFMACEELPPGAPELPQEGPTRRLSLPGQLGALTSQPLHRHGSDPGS
Compound,IC50 [1] [µM],IC50 [2] [µM]
CNC(=O)N1N=C(c2cc(F)ccc2F)CC1c1ccccc1 (stereo not drawn),3.14,
"CC(=O)N1N=C(c2ccccc2Cl)C[C@H]1c1cccc(O)c1 [1-[(5S)-3-(2-chlorophenyl)-5-(3-hydroxyphenyl)-4,5-dihydro-1H-pyrazol-1-yl]ethan-1-one]",0.45,
"CN(C)C(=O)N1N=C(c2cc(F)ccc2F)C[C@@]1(CCCN)c1ccccc1 [(5S)-5-(3-aminopropyl)-3-(2,5-difluorophenyl)-N,N-dimethyl-5-phenyl-4,5-dihydro-1H-pyrazole-1-carboxamide]",,19.3

# Reference: BindingDB's records for doi:10.1016/j.bmcl.2006.03.040 (Merck Research Laboratories, 2006)
